Laboratory results reported in patent US11691968B2, “Compound having KDM5 inhibitory activity and pharmaceutical use thereof” (ONO PHARMACEUTICAL CO., LTD., priority 2020, dated 2023).

Legend:
[1] = Metabolic Stability in Human Liver Microsomes; type: in vitro ADME
Method: Metabolic Stability in Human Liver Microsomes
Human liver microsome (BD Gentest Corporation, Cat No. #452161) incubations were conducted in duplicate in 96-well plates. Each well contains 40 μL of 0.1 M potassium phosphate buffer (pH 7.4), 4.125 mM MgCl2, 0.625 mg/mL liver microsomes, and test compound (1.25 μM). After 5-min preincubation at 37° C., 10 uL of 5.0 mM NADPH in 0.1M potassium phosphate buffer was added to initiate the enzymatic reaction. The final component concentrations are 0.1M potassium phosphate buffer (pH 7.4), 1.0 mM NADPH, 3.3 mM MgCl2, 0.5 mg/mL liver microsomes, and test compound (1.0 μM). Reactions were terminated at 0 and 60 min by adding 200 μL of ice-cold acetonitrile containing internal standard.
LC-MS/MS analysis was conducted as specified below.
The remaining at 60 min (%) of test compound was calculated from the peak area ratio (test compound/internal standard) of samples collected 0 and 60 min after the start of the reaction according to the formula described below. Remaining at 60 min (%)=peak area ratio of sample collected at 60 min/peak area ratio of sample collected at 0 min×100 [Results]

KDM5A = KDM5A (Homo sapiens (Human), UniProt P29375); experiment: Biochemical KDM5A Inhibition Assay (HTRF); conditions: KDM5A protein, biotin-labelled H3K4-Me3 substrate
KDM5A, sequence (P29375 whole entry): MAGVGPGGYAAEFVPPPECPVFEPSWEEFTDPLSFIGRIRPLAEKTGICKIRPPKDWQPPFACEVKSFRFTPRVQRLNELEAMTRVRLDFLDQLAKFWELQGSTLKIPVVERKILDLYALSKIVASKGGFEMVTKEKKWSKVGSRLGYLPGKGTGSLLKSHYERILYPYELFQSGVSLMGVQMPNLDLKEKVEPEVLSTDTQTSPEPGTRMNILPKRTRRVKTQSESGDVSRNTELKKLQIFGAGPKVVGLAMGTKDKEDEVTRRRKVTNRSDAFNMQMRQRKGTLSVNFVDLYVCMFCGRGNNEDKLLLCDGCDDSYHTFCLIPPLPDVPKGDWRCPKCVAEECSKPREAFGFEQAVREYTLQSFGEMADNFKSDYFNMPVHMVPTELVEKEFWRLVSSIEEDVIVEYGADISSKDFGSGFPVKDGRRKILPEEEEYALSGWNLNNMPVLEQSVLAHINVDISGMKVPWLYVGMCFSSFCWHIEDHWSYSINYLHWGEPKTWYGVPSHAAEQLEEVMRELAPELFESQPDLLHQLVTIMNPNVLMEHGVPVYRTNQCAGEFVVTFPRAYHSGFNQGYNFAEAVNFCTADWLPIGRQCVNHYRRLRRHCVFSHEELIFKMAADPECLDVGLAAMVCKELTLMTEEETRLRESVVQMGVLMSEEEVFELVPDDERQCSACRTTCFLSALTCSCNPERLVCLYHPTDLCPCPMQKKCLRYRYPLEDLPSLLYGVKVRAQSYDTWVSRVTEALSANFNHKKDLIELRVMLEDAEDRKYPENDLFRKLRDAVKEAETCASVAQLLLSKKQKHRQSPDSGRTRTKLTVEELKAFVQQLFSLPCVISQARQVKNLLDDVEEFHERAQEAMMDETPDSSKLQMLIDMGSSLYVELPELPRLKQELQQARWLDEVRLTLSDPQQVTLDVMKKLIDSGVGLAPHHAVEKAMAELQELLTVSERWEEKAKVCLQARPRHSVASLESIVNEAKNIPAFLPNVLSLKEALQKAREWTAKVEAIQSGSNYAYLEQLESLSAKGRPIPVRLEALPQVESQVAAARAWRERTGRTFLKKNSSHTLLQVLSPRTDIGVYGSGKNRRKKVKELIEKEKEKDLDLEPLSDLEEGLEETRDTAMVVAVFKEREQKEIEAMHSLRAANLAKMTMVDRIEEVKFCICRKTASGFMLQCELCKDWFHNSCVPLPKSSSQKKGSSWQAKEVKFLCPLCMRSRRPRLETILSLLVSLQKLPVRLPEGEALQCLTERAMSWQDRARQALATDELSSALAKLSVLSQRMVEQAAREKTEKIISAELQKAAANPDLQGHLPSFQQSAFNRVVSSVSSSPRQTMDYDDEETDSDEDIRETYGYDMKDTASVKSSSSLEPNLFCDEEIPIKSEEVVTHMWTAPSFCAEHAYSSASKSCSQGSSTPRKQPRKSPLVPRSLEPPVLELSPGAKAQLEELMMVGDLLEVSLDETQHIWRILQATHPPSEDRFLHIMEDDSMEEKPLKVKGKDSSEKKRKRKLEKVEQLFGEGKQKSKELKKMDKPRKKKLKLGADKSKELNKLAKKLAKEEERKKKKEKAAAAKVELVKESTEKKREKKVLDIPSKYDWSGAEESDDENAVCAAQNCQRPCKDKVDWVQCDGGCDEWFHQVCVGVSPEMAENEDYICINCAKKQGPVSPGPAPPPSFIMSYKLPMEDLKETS
Method: Biochemical KDM5A Inhibition Assay
Using 384-well white Greiner784075 (Greiner), representative compounds were characterized for their inhibition of KDM5A using HTRF® technology (Cisbio Bioassays). Briefly, the test compounds, reference compounds, and DMSO control (typical compound concentration range 1 μM-[…], final assay concentration (FAC*) of DMSO 0.5%) were added to 384-well plate by the Echo® acoustic dispensing platform (Labcyte). Five (5) 1l of KDM5A protein (produced by the method described in Nat Chem Biol 12, 531-538 (2016)). (5-20 nM FAC*) in assay buffer (50 mM MES, 50 mM NaCl, 1 mM TCEP, 0.01% v/v Tween 20, 0.03% BSA, pH 6.5) was added to wells and plates were incubated for 10-20 minutes at 25 degrees celsius. Then, 5 μl of alpha-ketoglutaric acid (100 μM FAC*), biotin-labelled H3K4-Me3 substrate (Anaspec Cat #AS-64357-1; 200 nM FAC*), Fe(II)SO4 (100 μM FAC*) and ascorbic acid (2 mM FAC*) in assay buffer was added to wells and plates were incubated for 20 minutes at room temperature. The reaction was stopped with the addition of 10 μl of anti-H3K4-Me2-Eu(K) (Cisbio Bioassays Cat #61KA2KAH; 0.75 nM FAC**)+Streptavidin XL665 (Cisbio Bioassays Cat #610SAXLB; 25 nM FAC**) in HTRF detection buffer (Cisbio Bioassays Cat #62SDBRDF). The mixture was incubated for 30 minutes at room temperature before 340 nm excitation and measurement of dual emission at 620 nm and 665 run. *FAC: final assay concentration calculated based on 10 μl of the assay buffer**FAC: final assay concentration calculated based on 20 μl of the detection buffer
The raw data (a 665 nm and a 620 nm reading from each well) for individual assay plates were analyzed. The ratio of emissions was calculated using the following calculation: Ratio=(665 nm emission/620 nm emission)×10000. […] Compound IC50 values were calculated from graphs of % inhibition plotted against compound concentration, using a four parameter curve fit. [Results]

[2] = 0.5 mg/mL liver microsomes, 1.0 μM test compound, 1.0 mM NADPH, 37° C., 60 min

SMILES | Metabolic stability in human liver microsomes (% remaining at 60 min) ([1]; human, microsomes, 1 h) [%] | IC50 (KDM5A) [nM] | Metabolic stability in human liver microsomes (% remaining at 60 min) [1, 2] [%]
CC(n1cnc(C(=O)N2C[C@@H]3C(C4=NOC(C)(C)C4)[C@@H]3C2)c1)C(F)(F)F (stereo partly drawn) [Example 9, [(1R,5S,6r)-6-(5,5-dimethyl-4,5-dihydro-1,2-oxazol-3-yl)-3-azabicyclo[3.1.0]hex-3-yl][1-(1,1,1-trifluoropropan-2-yl)-1H-imidazol-4-yl]methanone] | 93 | 400 | –
C[C@@H](c1ccccc1C#N)n1cnc(C(=O)N2C[C@@H]3[C@H](C2)[C@H]3C2=NOC(C)(C)C2)c1 [Example 22, 2-[(1S)-1-(4-{[(1R,5S,6S)-6-(5,5-dimethyl-4,5-dihydro-1,2-oxazol-3-yl)-3-azabicyclo[3.1.0]hex-3-yl]carbonyl}-1H-imidazol-1-yl)ethyl]benzonitrile] | – | 400 | –
C[C@@H](c1ccc(C#N)cc1)n1cnc(C(=O)N2C[C@@H]3[C@H](C2)[C@H]3C2=NOC(C)(C)C2)c1 [Example 24, 4-[(1S)-1-(4-{[(1R,5S,6S)-6-(5,5-dimethyl-4,5-dihydro-1,2-oxazol-3-yl)-3-azabicyclo[3.1.0]hex-3-yl]carbonyl}-1H-imidazol-1-yl)ethyl]benzonitrile] | 101 | 200 | –
C[C@@H](c1nccs1)n1cnc(C(=O)N2C[C@@H]3[C@H](C2)[C@H]3C2=NOC(C)(C)C2)c1 [Example 27, [(1R,5S,6S)-6-(5,5-dimethyl-4,5-dihydro-1,2-oxazol-3-yl)-3-azabicyclo[3.1.0]hex-3-yl]{1-[(1S)-1-(1,3-thiazol-2-yl)ethyl]-1H-imidazol-4-yl}methanone] | 97 | 1000 | –
CC(C)n1cnc(C(=O)N2C[C@@H]3C(C4=NOC(C)(C(F)F)C4)[C@@H]3C2)c1 (stereo partly drawn) [Example 40, {(1R,5S,6r)-6-[5-(difluoromethyl)-5-methyl-4,5-dihydro-1,2-oxazol-3-yl]-3-azabicyclo[3.1.0]hex-3-yl}(1-isopropyl-1H-imidazol-4-yl)methanone] | – | 200 | 103
Cc1onc([C@H]2[C@@H]3CN(C(=O)c4cn(C(C)C)cn4)C[C@@H]32)c1-c1ccccc1 [Example 55, (1-isopropyl-1H-imidazol-4-yl)[(1R,5S,6r)-6-(5-methyl-4-phenyl-1,2-oxazol-3-yl)-3-azabicyclo[3.1.0]hex-3-yl]methanone] | – | 20 | –
Cc1cc([C@H]2[C@@H]3CN(C(=O)c4cn(C(C)C)cn4)C[C@@H]32)no1 [Example 56, (1-isopropyl-1H-imidazol-4-yl)[(1R,5S,6r)-6-(5-methyl-1,2-oxazol-3-yl)-3-azabicyclo[3.1.0]hex-3-yl]methanone] | – | 200 | –
CC(C)n1cnc(C(=O)N2C[C@@H]3[C@H](C2)[C@H]3C2=NOC(C)(C)N2C)c1 [Example 59, (1-isopropyl-1H-imidazol-4-yl)[(1R,5S,6r)-6-(4,5,5-trimethyl-4,5-dihydro-1,2,4-oxadiazol-3-yl)-3-azabicyclo[3.1.0]hex-3-yl]methanone] | 100 | 20 | –
CCN1C([C@H]2[C@@H]3CN(C(=O)c4cn(C(C)C)cn4)C[C@@H]32)=NOC1(C)C [Example 60, [(1R,5S,6r)-6-(4-ethyl-5,5-dimethyl-4,5-dihydro-1,2,4-oxadiazol-3-yl)-3-azabicyclo[3.1.0]hex-3-yl](1-isopropyl-1H-imidazol-4-yl)methanone] | 102 | 200 | –
CC(C)n1cnc(C(=O)N2C[C@@H]3[C@H](C2)[C@H]3c2nnn3ccccc23)c1 [Example 62, (1-isopropyl-1H-imidazol-4-yl)[(1R,5S,6r)-6-([1,2,3]triazolo[1,5-a]pyridin-3-yl)-3-azabicyclo[3.1.0]hex-3-yl]methanone] | 83 | 10 | –
CC(C)n1cnc(C(=O)N2C[C@@H]3[C@H](C2)[C@H]3c2nnn[nH]2)c1 [Example 63, (1-isopropyl-1H-imidazol-4-yl)[(1R,5S,6r)-6-(1H-tetrazol-5-yl)-3-azabicyclo[3.1.0]hex-3-yl]methanone] | – | 10 | –
CC(C)n1cnc(C(=O)N2C[C@@H]3[C@H](C2)[C@H]3C(=O)NC(C)(C)C)c1 [Example 65, (1R,5S,6r)-N-tert-butyl-3-[1-(propan-2-yl)-1H-imidazole-4-carbonyl]-3-azabicyclo[3.1.0]hexane-6-carboxamide] | – | 20 | 93
CC(C)n1cnc(C(=O)N2C[C@@H]3[C@H](C2)[C@H]3C(=O)N(C)C(C)(C)C)c1 [Example 66, (1R,5S,6r)-N-tert-butyl-N-methyl-3-[1-(propan-2-yl)-1H-imidazole-4-carbonyl]-3-azabicyclo[3.1.0]hexane-6-carboxamide] | – | 30 | 89
CC(C)n1cnc(C(=O)N2C[C@@H]3[C@H](C2)[C@H]3C(=O)N(C)C2(C#N)CC2)c1 [Example 69, (1R,5S,6r)-N-(1-cyanocyclopropyl)-N-methyl-3-[1-(propan-2-yl)-1H-imidazole-4-carbonyl]-3-azabicyclo[3.1.0]hexane-6-carboxamide] | – | 200 | 89
CC(C)n1cnc(C(=O)N2C[C@@H]3[C@H](C2)[C@H]3C(=O)c2cccs2)c1 [Example 76, (1-isopropyl-1H-imidazol-4-yl)[(1R,5S,6r)-6-(2-thienylcarbonyl)-3-azabicyclo[3.1.0]hex-3-yl]methanone] | – | 60 | –
Cc1csc(C(=O)[C@H]2[C@@H]3CN(C(=O)c4cn(C(C)C)cn4)C[C@@H]32)c1 [Example 77, (1-isopropyl-1H-imidazol-4-yl){(1R,5S,6r)-6-[(4-methyl-2-thienyl)carbonyl]-3-azabicyclo[3.1.0]hex-3-yl}methanone] | – | 20 | –
Cc1cc([C@H]2[C@@H]3CN(C(=O)c4cc(C(C)C)[nH]n4)C[C@@H]32)no1 [Example 103, (5-isopropyl-1H-pyrazol-3-yl)[(1R,5S,6r)-6-(5-methyl-1,2-oxazol-3-yl)-3-azabicyclo[3.1.0]hex-3-yl]methanone] | – | 200 | –
Cc1c([C@H]2[C@@H]3CN(C(=O)c4cc(C(C)C)[nH]n4)C[C@@H]32)noc1C(F)F [Example 104, {(1R,5S,6r)-6-[5-(difluoromethyl)-4-methyl-1,2-oxazol-3-yl]-3-azabicyclo[3.1.0]hex-3-yl}(5-isopropyl-1H-pyrazol-3-yl)methanone] | – | 40 | –
Cc1onc([C@H]2[C@@H]3CN(C(=O)c4cc(C(C)C)[nH]n4)C[C@@H]32)c1-c1ccccn1 [Example 106, (5-isopropyl-1H-pyrazol-3-yl){(1R,5S,6r)-6-[5-methyl-4-(2-pyridinyl)-1,2-oxazol-3-yl]-3-azabicyclo[3.1.0]hex-3-yl}methanone] | – | 40 | –
CC(C)c1cc(C(=O)N2C[C@@H]3[C@H](C2)[C@H]3c2nnn3ccccc23)n[nH]1 [Example 132, (5-isopropyl-1H-pyrazol-3-yl)[(1R,5S,6r)-6-([1,2,3]triazolo[1,5-a]pyridin-3-yl)-3-azabicyclo[3.1.0]hex-3-yl]methanone] | – | 40 | –
CC(C)c1cc(C(=O)N2C[C@@H]3[C@H](C2)[C@H]3c2nnn[nH]2)n[nH]1 [Example 134, (5-isopropyl-1H-pyrazol-3-yl)[(1R,5S,6r)-6-(1H-tetrazol-5-yl)-3-azabicyclo[3.1.0]hex-3-yl]methanone] | – | 4 | –
CC(C)c1cc(C(=O)N2C[C@@H]3[C@H](C2)[C@H]3C(=O)N(C)C2(C)CC2)n[nH]1 [Example 138, (1R,5S,6r)-N-methyl-N-(1-methylcyclopropyl)-3-[5-(propan-2-yl)-1H-pyrazole-3-carbonyl]-3-azabicyclo[3.1.0]hexane-6-carboxamide] | – | 800 | –
